Measurements: US7368279B2, “Three dimensional bioengineered smooth muscle tissue and sphincters and methods therefor” (The Regents of The University of Michigan, priority 2004, dated 2008)
Entries after “also recorded” stand apart in the source; their conditions may differ.

Tested on: bioengineered IAS rings
Test: Isometric force (contraction/relaxation) of bioengineered IAS rings
Type: cell-based, rabbit
Procedure: Excitability and contractility of bioengineered IAS rings was measured using techniques adapted from previous work (Dennis et al., In Vitro Cellular & Developmental Biology Animal 36: 327-335, 2000. Dennis et al., American Journal of Physiology Cell Physiology 280: C288-C295, 2001). The diameter of the sphincter rings was measured and used to calculate cross-sectional area (CSA). The bioengineered sphincters were separated from their molds using forceps (FIG. 1 Panel E) and the minimum ring diameter was measured using a calibrated eyepiece and a 5× or 10× objective lens on an inverted microscope (Zeiss Axiovert 25, Thornwood, N.Y.). The cross section was circular, and therefore the CSA was calculated using the measured diameter. To measure the passive baseline force, the differentiation media in the plate containing the bioengineered sphincter was replaced with 37° C. Krebs solution (NaCl (119 mM), KCl (4.6 mM), NaHCO3 (15 mM), CaCl2 (1.5 mM), MgCl2 (1.2 mM), […], and glucose (11 mM)) and the plate was placed on a heated aluminum platform, which maintained a temperature of 37° C. until the testing was complete. For contractility measurements, one end of the bioengineered sphincter was anchored by a stainless steel pin (10 mm×0.1 mm diameter) to the PDMS substrate within the plate, while another stainless steel pin was bent in the shape of a hook and attached by canning wax to a force transducer (resolution of 1.4 μN and range of 2mN) as previously described (Dennis et al., In Vitro Cellular & Developmental Biology Animal 36: 327-335, 2000, Macpherson et al., J Physiol 500: 523-533, 1997) and as depicted in FIG. 1 (Panels F and G). The bioengineered sphincter was stretched approximately 50% of its resting length using a three-axis micromanipulator. The ring was allowed to sit for 20 minutes in order to reestablish a stable baseline level of force (Pb), which was measured as the average baseline passive force preceding stimulation. All force measurements were collected at 100 samples/second for 60 seconds and recorded using a computer with LabVIEW data acquisition software (National Instruments, Austin, Tex.). A median filter of rank 2 was applied to all raw force data before being stored to minimize digitization noise without causing a phase delay for rapidly changing forces. The peak isometric force (ΔP) was determined by subtracting the Pb from the total force values. Specific force (sΔP) was calculated by dividing ΔP by the CSA. Data analysis was done using LabVIEW and Microsoft Excel software programs. Each measurement was repeated at least three times and the mean value was recorded. Contractions were induced in the rings by the addition of acetylcholine. Dose-response relationships of acetylcholine were investigated in the range of 10^−6M to 10^−10M. Incremental doses of acetylcholine were added after the maximal response of the preceding concentration and the establishment of a new baseline. Relaxation response in the rings was induced by the addition of 8-Bromoadenosine 3′:5′-Cyclic Monophosphate (8-br-cAMP). Maximal relaxation was achieved after approximately 4 minutes and therefore relaxation measurements are collective of four consecutive 1-minute data recordings.

Nc1ncnc2c1nc(Br)n2[C@@H]1O[C@@H]2COP(=O)(O)O[C@H]2[C@H]1O [8-br-cAMP, 8-Bromoadenosine 3′:5′-Cyclic Monophosphate] was tested, and the “relaxation of acetylcholine-induced contraction” value (10^−5 M 8-br-cAMP added after 10^−6 M acetylcholine, Krebs buffer) was “rapid relaxation; also recorded: immediate relaxation”, the “ΔP (relaxation response)” value (10^−5 M 8-br-cAMP, 4 minutes, 0 Ca2+/2 mM EGTA Krebs) was −23±4 μN and the “average ΔP (relaxation from basal tone)” value (10^−5 M 8-br-cAMP, 4 minutes, Krebs buffer) was −16.3±2.0 μN.
